Patent publication US20250228239A1, “MOLECULES HAVING PESTICIDAL UTILITY, AND INTERMEDIATES, COMPOSITIONS, AND PROCESSES, RELATED THERETO” (priority 2024, published 2025)

Assays:
Type in all cases: in vivo
[1] = test system: Beet Armyworm (Spodoptera exigua, LAPHEG); experiment: Bioassays on Beet Armyworm (BAW), 128-well diet tray assay; details: Spodoptera exigua; Table ABC: Biological Results; species BAW; read-out: BAW
Outline: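 Second-instar larvae, one to five per well, were placed on artificial diet surface-treated with 50 μg/cm^2 compound in 90:10 acetone-water, eight wells per treatment. Trays were held 5–7 days at 25 °C, 14:10 light-dark. Percent mortality per well was averaged over eight wells.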

[2] = test system: Cabbage Looper (Trichoplusia ni, TRIPNI); experiment: Bioassays on Cabbage Looper (CL), 128-well diet tray assay; details: Trichoplusia ni; Table ABC: Biological Results; species CL; read-out: CL
Outline: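 Percent mortality, averaged across eight replicate wells, after second-instar larvae (1–5 per well) fed for five to seven days on diet dosed at 50 μg/cm^2. Compound was applied in acetone-water 90:10 and dried; trays kept vented at 25° C under 14:10 photoperiod.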

[3] = test system: Yellow Fever Mosquito (Aedes aegypti, AEDSAE); details: Table ABC: Biological Results; species YFM
Protocol: Certain molecules disclosed in this document were tested against YFM using procedures described in the following paragraph. In the reporting of the results, the “GPA & YFM Rating Table” was used (See Table Section).
Master plates containing 400 μg of a molecule dissolved in 100 μL of dimethyl sulfoxide (DMSO) (equivalent to a 4000 ppm solution) are used. A master plate of assembled molecules contains 15 μL per well. To this plate, 135 μL of a 90:10 water/acetone mixture is added to each well. A robot (Biomek® NXP Laboratory Automation Workstation) is programmed to dispense 15 μL aspirations from the master plate into an empty 96-well shallow plate (“daughter” plate). There are 6 reps (“daughter” plates) created per master. The created “daughter” plates are then immediately infested with YFM larvae.
The day before plates are to be treated, mosquito eggs are placed in Millipore water containing liver powder to begin hatching (4 g into 400 mL). After the “daughter” plates are created using the robot, they are infested with 220 μL of the liver powder/larval mosquito mixture (about 1 day-old larvae). After plates are infested with mosquito larvae, a non-evaporative lid is used to cover the plate to reduce drying. Plates are held at room temperature for 3 days prior to grading. After 3 days, each well is observed and scored based on mortality. The results are indicated in the table entitled “Table ABC: Biological Results” (See Table Section).

Row | Structure (SMILES) | pest or weed control at 50 µg/cm2 [1] [%] | pest or weed control at 50 µg/cm2 [2] [%] | YFM [3]
1 | O=C(Nc1ccc(F)cc1F)c1cc(NC(=O)[C@H]2[C@H](c3cc(F)c(F)c(Br)c3)C2(Cl)Cl)ccc1Cl (relative stereo) [F1011, trans-5-(3-(3-Bromo-4,5-difluorophenyl)-2,2-dichlorocyclopropane-1-carboxamido)-2-chloro-N-(2,4-difluorophenyl)benzamide] | 50 to 100 | 50 to 100 | A (80–100)
2 | O=C(Nc1ccc(F)cc1F)c1cc(NC(=O)[C@H]2[C@@H](c3cc(F)c(F)c(Br)c3)C2(Cl)Cl)ccc1Cl (relative stereo) [F1012, cis-5-(3-(3-Bromo-4,5-difluorophenyl)-2,2-dichlorocyclopropane-1-carboxamido)-2-chloro-N-(2,4-difluorophenyl)benzamide] | 50 to 100 | 50 to 100 | A (80–100)
3 | CC(C)(C)OC(=O)Nc1ccc(F)c(NC(=O)c2cc(NC(=O)[C@H]3[C@H](c4cc(Cl)cc(Cl)c4)C3(Cl)Cl)ccc2Cl)c1F (relative stereo) [F1023, trans-tert-Butyl-(3-(2-chloro-5-(2,2-dichloro-3-(3,5-dichlorophenyl)cyclopropane-1-carboxamido)benzamido)-2,4-difluorophenyl)carbamate] | 50 to 100 | 50 to 100 | A (80–100)
4 | O=C(Nc1ccc(F)cc1F)c1cc(NC(=O)[C@H]2[C@H](c3cc(F)c(Cl)c(Cl)c3)C2(Cl)Cl)ccc1Cl (relative stereo) [F1024, trans-2-Chloro-5-(2,2-dichloro-3-(3,4-dichloro-5-fluorophenyl)cyclopropane-1-carboxamido)-N-(2,4-difluorophenyl)benzamide] | 50 to 100 | 50 to 100 | A (80–100)
5 | O=C(Nc1ccc(F)cc1F)c1cc(NC(=O)[C@H]2[C@@H](c3cc(F)c(Cl)c(Cl)c3)C2(Cl)Cl)ccc1Cl (relative stereo) [F1025, cis-2-Chloro-5-(2,2-dichloro-3-(3,4-dichloro-5-fluorophenyl)cyclopropane-1-carboxamido)-N-(2,4-difluorophenyl)benzamide] | 50 to 100 | 50 to 100 | A (80–100)
6 | Nc1ccc(F)c(NC(=O)c2cc(NC(=O)[C@H]3[C@H](c4cc(Cl)cc(Cl)c4)C3(Cl)Cl)ccc2Cl)c1F (relative stereo) [F1026, trans-N-(3-Amino-2,6-difluorophenyl)-2-chloro-5-(2,2-dichloro-3-(3,5-dichlorophenyl)cyclopropane-1-carboxamido)benzamide] | 50 to 100 | 50 to 100 | A (80–100)
7 | O=C(Nc1ccc(F)cc1F)c1cc(NC(=O)[C@H]2[C@H](c3cc(Br)cc(S(F)(F)(F)(F)F)c3)C2(Cl)Cl)ccc1Cl (relative stereo) [F1031, trans-5-(3-(3-Bromo-5-(pentafluoro-λ^6-sulfanyl)phenyl)-2,2-dichlorocyclopropane-1-carboxamido)-2-chloro-N-(2,4-difluorophenyl)benzamide] | 50 to 100 | 50 to 100 | A (80–100)
8 | O=C(Nc1ccc(F)cc1F)c1cc(NC(=O)[C@H]2[C@@H](c3ccc(F)c(Cl)c3F)C2(Cl)Cl)ccc1Cl (relative stereo) [F1033, cis-2-Chloro-5-(2,2-dichloro-3-(3-chloro-2,4-difluorophenyl)cyclopropane-1-carboxamido)-N-(2,4-difluorophenyl)benzamide] | 50 to 100 | 50 to 100 | A (80–100)
9 | O=C(Nc1ccc(F)cc1F)c1cc(NC(=O)[C@H]2[C@H](c3ccc(F)c(Cl)c3F)C2(Cl)Cl)ccc1Cl (relative stereo) [F1034, trans-2-Chloro-5-(2,2-dichloro-3-(3-chloro-2,4-difluorophenyl)cyclopropane-1-carboxamido)-N-(2,4-difluorophenyl)benzamide] | 50 to 100 | 50 to 100 | A (80–100)
10 | COc1ccc(CNc2ccc(NC(=O)c3cc(NC(=O)[C@H]4[C@H](c5cc(Cl)cc(Cl)c5)C4(Cl)Cl)ccc3Cl)c(C)c2)cc1 (relative stereo) [F1035, trans-2-Chloro-5-(2,2-dichloro-3-(3,5-dichlorophenyl)cyclopropane-1-carboxamido)-N-(4-((4-methoxybenzyl)amino)-2-methylphenyl)benzamide] | 50 to 100 | 50 to 100 | A (80–100)
11 | Nc1c(F)ccc(NC(=O)c2cc(NC(=O)[C@H]3[C@H](c4ccc(Cl)c(C(F)F)c4)C3(Cl)Cl)ccc2Cl)c1F (relative stereo) [F1037, trans-N-(3-Amino-2,4-difluorophenyl)-2-chloro-5-(2,2-dichloro-3-(4-chloro-3-(difluoromethyl)phenyl)cyclopropane-1-carboxamido)benzamide] | 50 to 100 | 50 to 100 | A (80–100)
12 | Nc1c(F)ccc(NC(=O)c2cc(NC(=O)[C@H]3[C@H](c4cc(Cl)cc(C(F)F)c4)C3(Cl)Cl)ccc2Cl)c1F (relative stereo) [F1038, trans-N-(3-Amino-2,4-difluorophenyl)-2-chloro-5-(2,2-dichloro-3-(3-chloro-5-(difluoromethyl)phenyl)cyclopropane-1-carboxamido)benzamide] | 50 to 100 | 50 to 100 | A (80–100)
13 | CN(C(=O)c1cc(NC(=O)[C@H]2[C@H](c3cc(Cl)cc(Cl)c3)C2(Cl)Cl)ccc1C#N)c1ccc(F)cc1F (relative stereo) [F1039, trans-2-Cyano-5-(2,2-dichloro-3-(3,5-dichlorophenyl)cyclopropane-1-carboxamido)-N-(2,4-difluorophenyl)-N-methylbenzamide] | 50 to 100 | 50 to 100 | A (80–100)
14 | Cc1cc(NCc2ccc(C#N)cc2)ccc1NC(=O)c1cc(NC(=O)[C@H]2[C@H](c3cc(Cl)cc(Cl)c3)C2(Cl)Cl)ccc1Cl (relative stereo) [F1040, trans-2-Chloro-N-(4-((4-cyanobenzyl)amino)-2-methylphenyl)-5-(2,2-dichloro-3-(3,5-dichlorophenyl)cyclopropane-1-carboxamido)benzamide] | 50 to 100 | 50 to 100 | A (80–100)
15 | Nc1c(F)ccc(NC(=O)c2cc(NC(=O)[C@H]3[C@H](c4cc(Br)cc(S(F)(F)(F)(F)F)c4)C3(Cl)Cl)ccc2Cl)c1F (relative stereo) [F1042, trans-N-(3-Amino-2,4-difluorophenyl)-5-(3-(3-bromo-5-(pentafluoro-λ^6-sulfanyl)phenyl)-2,2-dichlorocyclopropane-1-carboxamido)-2-chlorobenzamide] | 50 to 100 | 50 to 100 | A (80–100)
16 | Nc1c(F)ccc(NC(=O)c2cc(NC(=O)[C@H]3[C@@H](c4cc(Br)cc(S(F)(F)(F)(F)F)c4)C3(Cl)Cl)ccc2Cl)c1F (relative stereo) [F1043, cis-N-(3-Amino-2,4-difluorophenyl)-5-(3-(3-bromo-5-(pentafluoro-λ^6-sulfanyl)phenyl)-2,2-dichlorocyclopropane-1-carboxamido)-2-chlorobenzamide] | 50 to 100 | 50 to 100 | A (80–100)
17 | Nc1c(F)ccc(NC(=O)c2cc(NC(=O)[C@H]3[C@H](c4cc(F)c(F)c(Br)c4)C3(Cl)Cl)ccc2Cl)c1F (relative stereo) [F1044, trans-N-(3-Amino-2,4-difluorophenyl)-5-(3-(3-bromo-4,5-difluorophenyl)-2,2-dichlorocyclopropane-1-carboxamido)-2-chlorobenzamide] | 50 to 100 | 50 to 100 | A (80–100)
18 | Nc1c(F)ccc(NC(=O)c2cc(NC(=O)[C@H]3[C@@H](c4cc(F)c(F)c(Br)c4)C3(Cl)Cl)ccc2Cl)c1F (relative stereo) [F1045, cis-N-(3-Amino-2,4-difluorophenyl)-5-(3-(3-bromo-4,5-difluorophenyl)-2,2-dichlorocyclopropane-1-carboxamido)-2-chlorobenzamide] | 50 to 100 | 50 to 100 | A (80–100)
